Tests used:
[1] = Adverse event reporting of increased urine output, TR01, hemodialysis patients; format: in vivo, human; conditions: dialysis patients in TR01; urine collection not performed
From the text: Based on historical data, the dialysis patients in TR01 had limited to no residual renal function.

[2] = Serum sodium (pre-dialysis), TR01, hemodialysis patients (Cohort 1); format: in vivo, human
[3] = Blood pressure (diastolic and systolic), TR01, hemodialysis patients
Procedure: (§1) The presence and extent of a possible aquaretic effect was evaluated by measuring urine output (healthy subjects only) and serum sodium as well as blood pressure and heart rate, as markers of potential volume depletion.
(§2) In the dialysis patients, all vital sign measurements and blood samples were collected pre-dialysis. On days of study drug administration, vital signs were measured at 0 (prior to the morning dose), 1.5, 4.5, and 8 hours after the morning dose and 2 hours after the evening meal, coinciding with administration of the PM dose. Blood pressure was also measured at 6 and 10 hours post dinner. On Day −1 (pre-treatment) vital sign measurements were obtained in the morning and evening at approximately the same time that study drug was administered on subsequent treatment days.
(§3) Blood pressure and heart rate were measured at multiple time points on Days −1 through 14 or 17.

[4] = Serum sodium, TR01, healthy subjects (Cohort 2); format: in vivo, human
[5] = Overall evaluation of aquaretic effect, TR01; format: in vivo, human
Procedure: (§4) The presence and extent of a possible aquaretic effect was evaluated by measuring urine output (healthy subjects only) and serum sodium as well as blood pressure and heart rate, as markers of potential volume depletion. Urine specific gravity was also analyzed to assess for reduced urine osmolarity (resulting in a decrease in urine specific gravity) due to free water excretion.

[6] = Heart rate, TR01, hemodialysis patients; format: in vivo, human
Procedure: as §1, §2, §3

[7] = oral aqueous solution; fasted conditions, across studies
[8] = Blood pressure (diastolic and systolic), TR01, healthy subjects
Procedure: as §1, §2, §3

[9] = Heart rate, TR01, healthy subjects; format: in vivo, human
Procedure: as §1, §2, §3

[10] = Urine output over 24 hours, Phase I trial TR01, healthy subjects (Cohort 2); conditions: five 24-hour collections, progressively higher doses
Procedure: as §4

Substance: 17-(cyclobutylmethyl)-4,5α-epoxymorphinian-3,6α,14-triol, hydrochloride [nalbuphine]
- Adverse event of increased urine output [1]: no adverse event of increased urine output was reported
- Hypernatremia during nalbuphine treatment [2]: No healthy subject (Table 5) or hemodialysis patient
- Trend of rising serum sodium during the treatment period [2]: nor was there a trend of rising serum sodium
- Systolic blood pressure range throughout the study ([3]; dialysis patients): 70-199 mmHg
- Dose-related reductions in blood pressure ([3]; hemodialysis patients, Days −1 through 14 or 17): no consistent dose-related reductions in blood pressure
- Hypotension ([3]; hemodialysis patients, throughout the study): no subjects or patients developed hypotension
- Hypernatremia during nalbuphine treatment [4]: No healthy subject
- Trend of rising serum sodium during the treatment period [4]: nor was there a trend of rising serum sodium
- Aquaretic effect ([5]; dialysis patients, doses up to 240 mg BID): no evidence of an aquaretic effect
- Aquaretic effect ([5]; healthy subjects, doses up to 180 mg BID): no evidence of an aquaretic effect
- Dose or time-dependent mean heart rate increase [6]: no evidence of a dose or time-dependent mean heart rate increase
- Median Tmax [7]: 30 to 60 min
- Systolic blood pressure range throughout the study [8]: 78-148 mmHg
- Dose-related reductions in blood pressure ([8]; Days −1 through 14): no consistent dose-related reductions in blood pressure
- Hypotension ([8]; throughout the study): no subjects or patients developed hypotension
- Dose or time-dependent mean heart rate increase [9]: no evidence of a dose or time-dependent mean heart rate increase
- Increased urine output related to dose or duration of time on nalbuphine [10]: no evidence of increased urine output

— US20170216277A1, “[…] USE OF […] […] EFFECTS” (TREVI THERAPEUTICS, INC., priority 2016, published 2017)
